Source: publication PMC6934184, “Selective DNA-PKcs inhibition extends the therapeutic index of localized radiotherapy and chemotherapy” (The Journal of Clinical Investigation, 2019)

Target: T1, GRK6 (Homo sapiens, UniProt P43250)
T1 construct: purchased Thermo Fisher Scientific (Life Technologies) SelectScreen
Assay: SelectScreen Z'LYTE
Assay type: biochemical
Method in brief: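 Percent values come from Thermo SelectScreen profiling of NU5455, combining activity and binding assays. CSF1R was run in Z'LYTE format at Km app ATP, and CAMK1 in Adapta format with ATP listed at 10.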

T1 sequence (P43250 whole entry): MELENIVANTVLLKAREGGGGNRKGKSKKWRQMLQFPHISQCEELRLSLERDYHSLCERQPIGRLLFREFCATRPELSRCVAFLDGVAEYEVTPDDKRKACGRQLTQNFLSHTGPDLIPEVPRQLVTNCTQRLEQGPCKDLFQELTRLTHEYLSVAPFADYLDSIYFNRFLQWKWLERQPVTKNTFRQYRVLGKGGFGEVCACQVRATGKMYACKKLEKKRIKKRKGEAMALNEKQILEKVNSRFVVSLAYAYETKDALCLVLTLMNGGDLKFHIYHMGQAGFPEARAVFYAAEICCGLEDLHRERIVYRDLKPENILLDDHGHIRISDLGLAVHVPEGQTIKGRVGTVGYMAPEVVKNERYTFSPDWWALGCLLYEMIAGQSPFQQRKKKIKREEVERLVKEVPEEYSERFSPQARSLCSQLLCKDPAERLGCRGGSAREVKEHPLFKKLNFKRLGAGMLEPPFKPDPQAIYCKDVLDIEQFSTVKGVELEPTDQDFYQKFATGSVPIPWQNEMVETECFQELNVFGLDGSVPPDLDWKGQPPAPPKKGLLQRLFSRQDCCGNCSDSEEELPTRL

CN(C(=O)CN1CCOCC1)c1ccc2sc3c(-c4cccc5c(=O)cc(N6CC7CCC(C6)O7)oc45)cccc3c2c1 [NU5455]
inhibition at 1 µM: 3.7%
